Experimental findings from US12227501B2, “3-amino-2-[2-(acylamino)pyridin-4-yl]-1,5,6,7-tetrahydro-4h-pyrrolo[3,2-c]pyridin-4-one as CSNK1 inhibitors” (Bayer Aktiengesellschaft, priority 2019, dated 2025) are described below.

Holding throughout (assay type): biochemical
Experiment [1] concerns the target T1, human CSNK1A1 (Homo sapiens (Human), UniProt P48729). Put plainly: CSNK1A1 Assay 2 (ADP-Glo, 1 μM ATP). Conditions: substrate biotin-Ahx-KRRRAL-pS-VASLPGL, read-out: CSNK1A1 Assay 2 IC50 [mol/l] (median). The method, then:
CSNK1A1-inhibitory activity of compounds of the present invention in presence of 1 μM adenosine-tri-phosphate (ATP) was quantified employing the CSNK1A1 assay as described in the following paragraphs. In essence, the enzyme activity is measured by quantification of the adenosine-di-phosphate (ADP), which is generated as a co-product of the enzyme reaction, via the “ADP-Glo™ Kinase Assay” kit from the company Promega. This detection system works as follows: In a first step the ATP not consumed in the kinase reaction is quantitatively converted to cAMP employing an adenylate cyclase (“ADP-Glo-reagent”), then the adenylate cyclase is stopped and the ADP generated in the kinase reaction converted to ATP which generates in a luciferase-based reaction a glow-luminescence signal (“Kinase Detection Reagent”). Recombinant fusion protein of N-terminal Glutathion-S-Transferase (GST) and full-length human CSNK1A1, expressed by baculovirus infected insect cells and purified via Glutathion affinity chromatography, was purchased from Life Technologies (product no. PV4174) and used as enzyme. As substrate for the kinase reaction the biotinylated peptide biotin-Ahx-KRRRAL-pS-VASLPGL (C-terminus in amide form) was used which can be purchased e.g. from the company Biosyntan (Berlin-Buch, Germany).
For the assay 50 nl of a 100 fold concentrated solution of the test compound in DMSO was pipetted into a white 1536-well microtiter plate (Greiner Bio-One, Frickenhausen, Germany), 2 μL of a solution of CSNK1A1 in aqueous assay buffer [50 mM HEPES pH 7.5, 10% (v/v) glycerol, 10 mM MgCl2, 50 mM NaCl, 1 mM dithiothreitol, 0.01% (w/v) bovine serum albumin, 0.01% (v/v) Triton X-100] were added and the mixture was incubated for 15 min at 22° C. to allow pre-binding of the test compounds to the enzyme before the start of the kinase reaction. […] The concentration of CSNK1A1 was adjusted depending of the activity of the enzyme lot and was chosen appropriate to have the assay in the linear range, a typical concentrations are about 0.0375 ng/μL. The reaction was stopped by the addition of 2.5 μL of “ADP-Glo-reagent” (1:1.5 fold diluted with water) and the resulting mixture was incubated at 22° C. for 1 h to convert the ATP not consumed in the kinase reaction completely […]. Subsequently 2.5 μL of the “kinase detection reagent” (1.2 fold more concentrated than recommended by the producer) were added, the resulting mixture was incubated at 22° C. for 1 h and then the luminescence measured with a suitable measurement instrument (e.g. Viewlux™ from Perkin-Elmer). The amount of emitted light was taken as a measure for the amount of ADP generated and thereby for the activity of the CSNK1A1.
Background: In ADP-Glo the light output rises with the ADP produced.

Experiment [2] has as its target T1, human CSNK1A1. Put plainly: CSNK1A1 High ATP Assay (ADP-Glo, 1 mM ATP). To be noted: read-out: CSNK1A1 high ATP assay IC50 [mol/l] (median). The method, then:
CSNK1A1-inhibitory activity of compounds of the present invention in presence of 1 mM adenosine-tri-phosphate (ATP) was quantified employing the CSNK1A1-high-ATP-assay as described in the following paragraphs. In essence, the enzyme activity is measured by quantification of the adenosine-di-phosphate (ADP), which is generated as a co-product of the enzyme reaction, via the “ADP-Glo™ Kinase Assay” kit from the company Promega. This detection system works as follows: In a first step the ATP not consumed in the kinase reaction is quantitatively converted to cAMP employing an adenylate cyclase (“ADP-Glo-reagent”), then the adenylate cyclase is stopped and the ADP generated in the kinase reaction converted to ATP which generates in a luciferase-based reaction a glow-luminescence signal (“Kinase Detection Reagent”).
Recombinant fusion protein of N-terminal Glutathion-S-Transferase (GST) and full-length human CSNK1A1, expressed by baculovirus infected insect cells and purified via Glutathion affinity chromatography, was purchased from Life Technologies (product no. PV4174) and used as enzyme. As substrate for the kinase reaction the biotinylated peptide biotin-Ahx-KRRRAL-pS-VASLPGL (C-terminus in amide form) was used which can be purchased e.g. from the company Biosyntan (Berlin-Buch, Germany).
For the assay 50 nl of a 100 fold concentrated solution of the test compound in DMSO was pipetted into a white low volume 384-well microtiter plate (Greiner Bio-One, Frickenhausen, Germany), 2 μL of a solution of CSNK1A1 in aqueous assay buffer [50 mM HEPES pH 7.5, 10% (v/v) glycerol, 10 mM MgCl2, 50 mM NaCl, 1 mM dithiothreitol, 0.01% (w/v) bovine serum albumin, 0.01% (v/v) Triton X-100] were added and the mixture was incubated for 15 min at 22° C. to allow pre-binding of the test compounds to the enzyme before the start of the kinase reaction. […] The concentration of CSNK1A1 was adjusted depending of the activity of the enzyme lot and was chosen appropriate to have the assay in the linear range, a typical concentration is about 0.4 ng/μL. The reaction was stopped by the addition of 2.5 μL of “ADP-Glo-reagent” (1:1.5 fold diluted with water) and the resulting mixture was incubated at 22° C. for 1 h to convert the ATP not consumed in the kinase reaction completely […]. Subsequently 2.5 μL of the “kinase detection reagent” (1.2 fold more concentrated than recommended by the producer) were added, the resulting mixture was incubated at 22° C. for 1 h and then the luminescence measured with a suitable measurement instrument (e.g. Viewlux™ from Perkin-Elmer). The amount of emitted light was taken as a measure for the amount of ADP generated and thereby for the activity of the CSNK1A1.

In a further experiment the target is human CSNK1D (Homo sapiens (Human), UniProt P48730). Put plainly: CSNK1D Assay (ADP-Glo, 1 μM ATP). To be noted: read-out: CSNK1D IC50 [mol/l] (median). The method, then:
CSNK1 D-inhibitory activity of compounds of the present invention in presence of 1 μM adenosine-tri-phosphate (ATP) was quantified employing the CSNK1D assay as described in the following paragraphs. In essence, the enzyme activity is measured by quantification of the adenosine-di-phosphate (ADP), which is generated as a co-product of the enzyme reaction, via the “ADP-Glo™ Kinase Assay” kit from the company Promega. This detection system works as follows: In a first step the ATP not consumed in the kinase reaction is quantitatively converted to cAMP employing an adenylate cyclase (“ADP-Glo-reagent”), then the adenylate cyclase is stopped and the ADP generated in the kinase reaction converted to ATP which generates in a luciferase-based reaction a glow-luminescence signal (“Kinase Detection Reagent”). Recombinant fusion protein of N-terminal Glutathion-S-Transferase (GST) and full-length human CSNK1D, expressed by baculovirus infected insect cells and purified via Glutathion affinity chromatography, was purchased from Life Technologies (product no. PV3665) and used as enzyme. As substrate for the kinase reaction the biotinylated peptide Btn-Ahx-[…] (C-terminus in amide form) was used which can be purchased e.g. from the company Biosyntan (Berlin-Buch, Germany).
For the assay 50 nl of a 100 fold concentrated solution of the test compound in DMSO was pipetted into a white 1536-well microtiter plate (Greiner Bio-One, Frickenhausen, Germany), 2 μL of a solution of CSNK1D in aqueous assay buffer [50 mM HEPES pH 7.5, 10% (v/v) glycerol, 10 mM MgCl2, 50 mM NaCl, 1 mM dithiothreitol, 0.01% (w/v) bovine serum albumin, 0.01% (v/v) Triton X-100] were added and the mixture was incubated for 15 min at 22° C. to allow pre-binding of the test compounds to the enzyme before the start of the kinase reaction. […] The concentration of CSNK1 D was adjusted depending of the activity of the enzyme lot and was chosen appropriate to have the assay in the linear range, a typical concentration is about 0.5 ng/μL. The reaction was stopped by the addition of 2.5 μL of “ADP-Glo-reagent” (1:1.5 fold diluted with water) and the resulting mixture was incubated at 22° C. for 1 h to convert the ATP not consumed in the kinase reaction completely […]. Subsequently 2.5 μL of the “kinase detection reagent” (1.2 fold more concentrated than recommended by the producer) were added, the resulting mixture was incubated at 22° C. for 1 h and then the luminescence measured with a suitable measurement instrument (e.g. Viewlux™ from Perkin-Elmer). The amount of emitted light was taken as a measure for the amount of ADP generated and thereby for the activity of the CSNK1D.

For experiment [3], the target named is wild-type Epidermal Growth Factor Receptor (EGFR) (Homo sapiens (Human), UniProt P00533). Put plainly: WT-EGFR Kinase Assay (TR-FRET, 2 mM ATP). Conditions: EGFR Wildtyp- 2 mM ATP IC50 [mol/l] (median). A general note: Time-resolved FRET reads energy transfer from a long-lived donor to a nearby acceptor.
Sequence of wild-type Epidermal Growth Factor Receptor (EGFR) (P00533 669-1210): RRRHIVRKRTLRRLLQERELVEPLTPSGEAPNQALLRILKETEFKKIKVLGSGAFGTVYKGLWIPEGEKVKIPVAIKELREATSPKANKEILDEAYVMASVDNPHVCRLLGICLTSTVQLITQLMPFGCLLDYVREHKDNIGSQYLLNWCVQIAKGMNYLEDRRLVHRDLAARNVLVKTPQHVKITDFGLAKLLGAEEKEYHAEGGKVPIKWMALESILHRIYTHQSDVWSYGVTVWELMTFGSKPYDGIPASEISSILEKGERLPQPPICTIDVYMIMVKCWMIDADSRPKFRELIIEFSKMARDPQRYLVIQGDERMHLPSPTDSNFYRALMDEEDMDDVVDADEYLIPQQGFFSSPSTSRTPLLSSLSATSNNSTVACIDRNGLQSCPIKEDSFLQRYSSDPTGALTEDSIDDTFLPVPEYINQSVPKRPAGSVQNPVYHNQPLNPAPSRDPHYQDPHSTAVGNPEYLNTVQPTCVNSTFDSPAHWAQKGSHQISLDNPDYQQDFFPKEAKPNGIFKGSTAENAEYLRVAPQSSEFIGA

T1 sequence (P48729 whole entry): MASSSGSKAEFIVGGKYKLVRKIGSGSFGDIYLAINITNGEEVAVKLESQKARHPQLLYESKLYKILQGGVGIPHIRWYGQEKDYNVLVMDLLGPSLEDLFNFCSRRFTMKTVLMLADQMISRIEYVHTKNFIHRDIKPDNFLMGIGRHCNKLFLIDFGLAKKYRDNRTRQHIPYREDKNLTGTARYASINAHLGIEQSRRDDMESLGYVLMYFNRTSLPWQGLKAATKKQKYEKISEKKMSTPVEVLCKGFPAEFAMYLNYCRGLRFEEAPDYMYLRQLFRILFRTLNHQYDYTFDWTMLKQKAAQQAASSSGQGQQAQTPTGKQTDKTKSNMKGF
Sequence of human CSNK1D (P48730 whole entry): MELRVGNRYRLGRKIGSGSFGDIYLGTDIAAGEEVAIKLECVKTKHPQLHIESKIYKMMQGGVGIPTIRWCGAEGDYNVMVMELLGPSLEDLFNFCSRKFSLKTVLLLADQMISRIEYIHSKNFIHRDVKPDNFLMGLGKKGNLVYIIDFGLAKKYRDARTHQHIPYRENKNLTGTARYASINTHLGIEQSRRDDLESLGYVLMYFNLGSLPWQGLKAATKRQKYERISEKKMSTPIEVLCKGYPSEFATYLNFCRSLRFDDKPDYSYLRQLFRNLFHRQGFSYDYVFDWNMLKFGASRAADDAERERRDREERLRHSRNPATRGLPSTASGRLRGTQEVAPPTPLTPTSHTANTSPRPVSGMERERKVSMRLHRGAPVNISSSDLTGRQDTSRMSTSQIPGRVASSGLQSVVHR

As to `O=C(Cc1ccc(F)cc1)Nc1cc(-c2[nH]c3c(c2Nc2ccccc2)C(=O)NC(C(F)(F)F)C3)ccn1` (racemic) [Example 43, N-{4-[3-anilino-4-oxo-6-(trifluoromethyl)-4,5,6,7-tetrahydro-1H-pyrrolo[3,2-c]pyridin-2-yl]pyridin-2-yl}-2-(4-fluorophenyl)acetamide], the IC50 on human CSNK1A1 [1] is 3.52 nM; on human CSNK1A1 [2], 67.5 nM; on human CSNK1D, 7.12 nM; in experiment [3], 2 µM.
As for `CN1C(=O)c2c([nH]c(-c3ccnc(NC(=O)C(CC(F)F)c4ccc(F)cc4)c3)c2Nc2ccccc2F)CC1(C)C` (racemic) [Example 45, 4,4-difluoro-N-{4-[3-(2-fluoroanilino)-5,6,6-trimethyl-4-oxo-4,5,6,7-tetrahydro-1H-pyrrolo[3,2-c]pyridin-2-yl]pyridin-2-yl}-2-(4-fluorophenyl)butanamide], the IC50 on human CSNK1A1 [1] is 16.3 nM; at human CSNK1A1 [2], 273 nM; on human CSNK1D, 13.2 nM; in experiment [3] it was more than 20 µM.
For the compound `CC1(C)Cc2[nH]c(-c3ccnc(NC(=O)C(CC(F)F)c4ccc(F)cc4)c3)c(Nc3ccccc3)c2C(=O)N1` (racemic) [Example 48, N-[4-(3-anilino-6,6-dimethyl-4-oxo-4,5,6,7-tetrahydro-1H-pyrrolo[3,2-c]pyridin-2-yl)pyridin-2-yl]-4,4-difluoro-2-(4-fluorophenyl)butanamide], the IC50 at human CSNK1A1 [1] stood at 7.69 nM; on human CSNK1A1 [2], 37 nM; on human CSNK1D it was 13.4 nM; in experiment [3] it was 14.5 µM.
On to `O=C1NC2(CCC2)Cc2[nH]c(-c3ccnc(NC(=O)C(CC(F)F)c4ccc(F)cc4)c3)c(Nc3ccccc3)c21` (racemic) [Example 54, N-[4-(3′-anilino-4′-oxo-1′,4′,5′,7′-tetrahydrospiro[cyclobutane-1,6′-pyrrolo[3,2-c]pyridin]-2′-yl)pyridin-2-yl]-4,4-difluoro-2-(4-fluorophenyl)butanamide], for which the IC50 was 4.62 nM on human CSNK1A1 [1], 14.6 nM on human CSNK1A1 [2], 5.5 nM on human CSNK1D and more than 20 µM in experiment [3].
With `CN(C)CCCC(C(=O)Nc1cc(-c2[nH]c3c(c2Nc2ccccc2)C(=O)N(C)CC3)ccn1)c1ccccc1` (racemic) [Example 58, N-[4-(3-anilino-5-methyl-4-oxo-4,5,6,7-tetrahydro-1H-pyrrolo[3,2-c]pyridin-2-yl)pyridin-2-yl]-5-(dimethylamino)-2-phenylpentanamide], the IC50 at human CSNK1A1 [1] is 12.4 nM; at human CSNK1A1 [2], 1200 nM; on human CSNK1D, 40.6 nM; in experiment [3], more than 20 µM.
Turning to `CN1CCc2[nH]c(-c3ccnc(NC(=O)C(CC(F)F)c4ccc(F)cc4)c3)c(Nc3ccccc3)c2C1=O` (racemic) [Example 61, N-[4-(3-anilino-5-methyl-4-oxo-4,5,6,7-tetrahydro-1H-pyrrolo[3,2-c]pyridin-2-yl)pyridin-2-yl]-4,4-difluoro-2-(4-fluorophenyl)butanamide], the IC50 on human CSNK1A1 [1] was 5.11 nM; at human CSNK1A1 [2] it was 21.9 nM; on human CSNK1D, 7.68 nM; in experiment [3], 8.02 µM.
Taken in the same sequence, the figures for `CC(C(=O)Nc1cc(-c2[nH]c3c(c2Nc2ccccc2)C(=O)N(C)CC3)ccn1)c1ccncc1` (racemic) [Example 72, N-[4-(3-anilino-5-methyl-4-oxo-4,5,6,7-tetrahydro-1H-pyrrolo[3,2-c]pyridin-2-yl)pyridin-2-yl]-2-(pyridin-4-yl)propanamide] were 3.97 nM, 66.4 nM, 6.09 nM and 7.59 µM.
Taken in the same sequence, the figures for `CCC(C(=O)Nc1cc(-c2[nH]c3c(c2Nc2ccccc2)C(=O)N(C)CC3)ccn1)c1ccc(F)cc1` (racemic) [Example 75, N-[4-(3-anilino-5-methyl-4-oxo-4,5,6,7-tetrahydro-1H-pyrrolo[3,2-c]pyridin-2-yl)pyridin-2-yl]-2-(4-fluorophenyl)butanamide] were 5.49 nM, 164 nM, 8.28 nM and more than 20 µM.
On to `CN1CCc2[nH]c(-c3ccnc(NC(=O)Cc4ccc(N(C)C)cc4)c3)c(Nc3ccccc3)c2C1=O` [Example 84, N-[4-(3-anilino-5-methyl-4-oxo-4,5,6,7-tetrahydro-1H-pyrrolo[3,2-c]pyridin-2-yl)pyridin-2-yl]-2-[4-(dimethylamino)phenyl]acetamide], for which the IC50 on human CSNK1A1 [1] is 2.64 nM; at human CSNK1A1 [2], 217 nM; on human CSNK1D, 8.5 nM.
